Test results from patent US6521568B1, “Plant disease controlling compositions and plant disease controlling method” (Sumitomo Chemical Company, Limited, priority 1999, dated 2003).

System: fungi of gray mold of cucumber
Test: Controlling effect on gray mold of cucumber, foliar spray on potted cucumber plants
Type: in vivo, Botrytis cinerea
Conditions: single compound, 5.0 ppm, 10° C. humid for 6 days after inoculation
Experimental: Plastic pots were filled with sandy loam and sown with cucumber (Sagamihanjiro), followed by growing in a greenhouse for 12 days. A wettable powder of the Compound (I-j) and a wettable powder of procymidone were separately diluted with water, and these dilutions were tank-mixed, then the tank-mixed dilution of the prescribed concentrations of the Compound (I-j) and procymidone was prepared. Said tank-mixed dilution was sprayed to foliage of said cucumber so as to adhere the dilution sufficiently to the surfaces of its leave. After air-drying, a PDA medium including hyphae of the fungi of gray mold of cucumber was placed on the leave surfaces of said cucumber. After inoculation, the plastic pots were placed under a humid environment of 10° C. for 6 days, and then the controlling effect was examined. […]
At the examination, the following evaluation indices was used. The attack rates were calculated with Scheme 1, and then on the basis of the attack rates, the controlling values were calculated with Scheme 2. […]
The controlling effect, which is expected when treatment is carried out by mixing the given two species of active ingredient compounds, is generally calculated according to the following Colby equation described at Scheme 3. […]

## CC12CC1(C)C(=O)N(c1cc(Cl)cc(Cl)c1)C2=O (stereo not shown) [(II), N-(3,5-dichlorophenyl)-1,2-dimethylcyclopropane-1,2-dicarboximide]
  Actual controlling value: 0%
